Data on two compounds can be found in US20080146516A1, “Novel C-Glycosides, uses thereof” (L 'OREAL SA, priority 2004, published 2008).

In this assay the test system is normal human dermal fibroblasts. Put plainly: Synthesis of glycosaminoglycans (hyaluronic acid): incorporation of radioactivity into the matrix neosynthesized by fibroblast cultures. The class given is cell-based. Conditions: 72 hours incubation; for cpm (radioactivity incorporated into matrix GAGs): 35S-sulphate during final 24 hours; for %/control: relative to the control (100). The method, then:
The study was carried out by measuring the incorporation of radioactive glucosamine into the matrix neosynthesized by normal human dermal fibroblast cultures. The incorporation of radioactive glucosamine indicates specific neosynthesis of glycosaminoglycans via incorporation of the sulphated form of this glucosamine.
Normal human dermal fibroblasts were seeded in the conventional culture medium and were then preincubated for 24 hours. The culture medium was then replaced with the test compounds at concentrations of 0.3, 1 and 3 mM; or culture medium (control); or TGFβ at 10 ng/ml (quality control). The cells were incubated for 72 hours with the addition of ^35S-sulphate during the final 24 hours of culture. The GAGs in the matrix were extracted with a chaotropic buffer and then purified by ion exchange chromatography (adsorption of the anionic molecules onto Q-sepharose beads under high stringency conditions, followed by desorption of the weakly and moderately anionic molecules with urea). The radioactivity incorporated into the very […] molecules that remained on the support were counted by liquid scintillation.
The results are expressed as percentage relative to the control: […]

On to `C[C@H](O)C[C@@H]1OC[C@@H](O)[C@H](O)[C@H]1O` [Example 1, C-β-D-xylopyranoside-2-(S)-hydroxypropane], for which the “cpm (radioactivity incorporated into matrix GAGs)” value is on record as 16276 cpm (0.3 mM), 30943 cpm (1 mM) and 40770 cpm (3 mM). The “%/control” value runs as follows: (0.3 mM) 325%; (1 mM) 618%; (3 mM) 814%.

As to TGFβ [reference compound], where the note is “10 ng/ml”, the “cpm (radioactivity incorporated into matrix GAGs)” value is given as 9625 cpm and the “%/control” value is 192%.
